According to PubChem BioAssay (NCI):
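48-hour exposure; five concentrations; linearly interpolated endpoints. Abbreviation: GI50, concentration required for 50% inhibition of growth. TGI is the concentration that stops growth completely.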

Each molecule was assayed on SN12C renal (assay: DTP human tumour cell line panel, 48 h).
With `COc1ccccc1C1C(C(=O)O)=C(CO)Oc2cc3c(cc21)OCO3` (stereo unspecified) the TGI was over 100 µM.
In the case of `Cc1ccc2c(n1)C(=O)c1[nH]c3ccccc3c1C2=O`, the GI50 is reported as 2 µM and the TGI is reported as 6.06 µM.
`O=C(OC(=O)n1ccc2ccccc21)n1ccc2ccccc21` showed a TGI of over 100 µM.
Work on `C=CC(Br)(CBr)CCC(Cl)C(C)C` (stereo unspecified) yielded a TGI of 3.19 µM.
In the case of `Cc1nc(N)sc1-c1ccnc(Nc2ccc(N3CCOCC3)cc2)n1`, the GI50 is reported as 2.24 µM and the TGI is reported as over 100 µM.
`CC(=O)Oc1cccc2c(/C=N/NC(N)=S)ncc(C)c12` gave a TGI of 17.1 µM.
For `CC(=O)OC1CCC2(C)C3CCC4(C)C(c5ccc(=O)oc5)CC5OC54C3CCC2(O)C1` (stereo unspecified), the TGI was 34.2 µM.
In the case of `Cc1cc(=O)[nH]c(NN2C(Cl)C(=O)C2c2cccc(O)c2)n1` (stereo unspecified), the TGI is reported as over 100 µM.
`Cc1ccc(S(=O)(=O)Oc2cc(-c3ccccc3)nc3ccccc23)cc1` gave a TGI of over 41.5 µM.
`NNC(N)Nc1ccccc1` (stereo unspecified) showed a TGI of over 100 µM.
`CC1CC=CC(O)C1` (stereo unspecified) showed a TGI of over 100 µM.
`c1ccc(N=C2SC(=NC3CCCCC3)N(C3CCCCC3)C2=Nc2ccccc2)cc1` gave a TGI of over 100 µM.
In the case of `O=NN(CCCl)C(=O)NC1CCSc2ccccc21` (stereo unspecified), the TGI is reported as over 100 µM.

The molecules below were run on U251 CNS (assay: DTP human tumour cell line panel, 48 h).
`O=[N+]([O-])c1ccc(C=C2C(Cl)=C(Cl)C(Cl)=C2Cl)cc1` showed a GI50 of 1.77 µM and a TGI of 3.46 µM.
In the case of `COc1ccccc1C1C(C(=O)O)=C(CO)Oc2cc3c(cc21)OCO3` (stereo unspecified), the TGI is reported as over 100 µM.
For `Cc1ccc2c(n1)C(=O)c1[nH]c3ccccc3c1C2=O`, the GI50 was 2.93 µM and the TGI was over 100 µM.
`O=C(OC(=O)n1ccc2ccccc21)n1ccc2ccccc21` gave a TGI of over 100 µM.
`C=CC(Br)(CBr)CCC(Cl)C(C)C` (stereo unspecified) showed a TGI of 3.02 µM.
`Cc1nc(N)sc1-c1ccnc(Nc2ccc(N3CCOCC3)cc2)n1` showed a GI50 of 2.36 µM and a TGI of over 100 µM.
`CC(=O)Oc1cccc2c(/C=N/NC(N)=S)ncc(C)c12` was tested, and the TGI was over 42.6 µM.
`CC(=O)OC1CCC2(C)C3CCC4(C)C(c5ccc(=O)oc5)CC5OC54C3CCC2(O)C1` (stereo unspecified) gave a TGI of 9.14 µM.
With `Cc1cc(=O)[nH]c(NN2C(Cl)C(=O)C2c2cccc(O)c2)n1` (stereo unspecified) the TGI was over 100 µM.
In the case of `Cc1ccc(S(=O)(=O)Oc2cc(-c3ccccc3)nc3ccccc23)cc1`, the TGI is reported as 9.85 µM.
`NNC(N)Nc1ccccc1` (stereo unspecified) gave a TGI of over 100 µM.
Work on `CC1CC=CC(O)C1` (stereo unspecified) yielded a TGI of over 100 µM.
`c1ccc(N=C2SC(=NC3CCCCC3)N(C3CCCCC3)C2=Nc2ccccc2)cc1` showed a TGI of over 100 µM.
Work on `O=NN(CCCl)C(=O)NC1CCSc2ccccc21` (stereo unspecified) yielded a TGI of over 100 µM.

The molecules below were run on CCRF-CEM leukemia (assay: DTP human tumour cell line panel, 48 h).
In the case of `O=[N+]([O-])c1ccc(C=C2C(Cl)=C(Cl)C(Cl)=C2Cl)cc1`, the GI50 is reported as 2.21 µM and the TGI is reported as 6.57 µM.
`COc1ccccc1C1C(C(=O)O)=C(CO)Oc2cc3c(cc21)OCO3` (stereo unspecified) showed a TGI of over 100 µM.
With `Cc1ccc2c(n1)C(=O)c1[nH]c3ccccc3c1C2=O` the GI50 was 3.45 µM and the TGI was over 100 µM.
In the case of `O=C(OC(=O)n1ccc2ccccc21)n1ccc2ccccc21`, the TGI is reported as over 100 µM.
With `C=CC(Br)(CBr)CCC(Cl)C(C)C` (stereo unspecified) the TGI was 2.64 µM.
In the case of `Cc1nc(N)sc1-c1ccnc(Nc2ccc(N3CCOCC3)cc2)n1`, the GI50 is reported as 1.16 µM and the TGI is reported as over 100 µM.
`CC(=O)Oc1cccc2c(/C=N/NC(N)=S)ncc(C)c12` was tested, and the TGI was over 100 µM.
For `CC(=O)OC1CCC2(C)C3CCC4(C)C(c5ccc(=O)oc5)CC5OC54C3CCC2(O)C1` (stereo unspecified), the TGI was 2.7 µM.
`Cc1cc(=O)[nH]c(NN2C(Cl)C(=O)C2c2cccc(O)c2)n1` (stereo unspecified) showed a TGI of over 100 µM.
Work on `Cc1ccc(S(=O)(=O)Oc2cc(-c3ccccc3)nc3ccccc23)cc1` yielded a TGI of over 100 µM.
`NNC(N)Nc1ccccc1` (stereo unspecified) gave a TGI of over 100 µM.
In the case of `CC1CC=CC(O)C1` (stereo unspecified), the TGI is reported as over 100 µM.
In the case of `c1ccc(N=C2SC(=NC3CCCCC3)N(C3CCCCC3)C2=Nc2ccccc2)cc1`, the TGI is reported as over 100 µM.
With `O=NN(CCCl)C(=O)NC1CCSc2ccccc21` (stereo unspecified) the TGI was over 100 µM.

The molecules below were run on RPMI-8226 leukemia (assay: DTP human tumour cell line panel, 48 h).
`O=[N+]([O-])c1ccc(C=C2C(Cl)=C(Cl)C(Cl)=C2Cl)cc1` gave a GI50 of 1.84 µM and a TGI of 5.16 µM.
Work on `COc1ccccc1C1C(C(=O)O)=C(CO)Oc2cc3c(cc21)OCO3` (stereo unspecified) yielded a TGI of over 100 µM.
For `Cc1ccc2c(n1)C(=O)c1[nH]c3ccccc3c1C2=O`, the GI50 was 2.25 µM and the TGI was 12.3 µM.
Molecule `O=C(OC(=O)n1ccc2ccccc21)n1ccc2ccccc21` has a TGI of over 100 µM.
Work on `Cc1nc(N)sc1-c1ccnc(Nc2ccc(N3CCOCC3)cc2)n1` yielded a GI50 of 1.66 µM and a TGI of over 38.3 µM.
Work on `CC(=O)Oc1cccc2c(/C=N/NC(N)=S)ncc(C)c12` yielded a TGI of 24.5 µM.
With `CC(=O)OC1CCC2(C)C3CCC4(C)C(c5ccc(=O)oc5)CC5OC54C3CCC2(O)C1` (stereo unspecified) the TGI was 14.1 µM.
`Cc1cc(=O)[nH]c(NN2C(Cl)C(=O)C2c2cccc(O)c2)n1` (stereo unspecified) gave a TGI of over 100 µM.
For `Cc1ccc(S(=O)(=O)Oc2cc(-c3ccccc3)nc3ccccc23)cc1`, the TGI was 7.71 µM.
`CC1CC=CC(O)C1` (stereo unspecified) gave a TGI of over 100 µM.
For `c1ccc(N=C2SC(=NC3CCCCC3)N(C3CCCCC3)C2=Nc2ccccc2)cc1`, the TGI was over 100 µM.
Molecule `O=NN(CCCl)C(=O)NC1CCSc2ccccc21` (stereo unspecified) has a TGI of over 100 µM.

These molecules were tested on SNB-19 CNS (assay: DTP human tumour cell line panel, 48 h).
In the case of `O=[N+]([O-])c1ccc(C=C2C(Cl)=C(Cl)C(Cl)=C2Cl)cc1`, the GI50 is reported as 9.68 µM and the TGI is reported as over 100 µM.
`COc1ccccc1C1C(C(=O)O)=C(CO)Oc2cc3c(cc21)OCO3` (stereo unspecified) showed a TGI of over 100 µM.
`Cc1ccc2c(n1)C(=O)c1[nH]c3ccccc3c1C2=O` was tested, and the GI50 was 2.7 µM and the TGI was over 100 µM.
`O=C(OC(=O)n1ccc2ccccc21)n1ccc2ccccc21` showed a TGI of over 100 µM.
`C=CC(Br)(CBr)CCC(Cl)C(C)C` (stereo unspecified) gave a TGI of 6.82 µM.
Work on `Cc1nc(N)sc1-c1ccnc(Nc2ccc(N3CCOCC3)cc2)n1` yielded a GI50 of over 49.5 µM and a TGI of over 100 µM.
Work on `CC(=O)Oc1cccc2c(/C=N/NC(N)=S)ncc(C)c12` yielded a TGI of 16.3 µM.
`CC(=O)OC1CCC2(C)C3CCC4(C)C(c5ccc(=O)oc5)CC5OC54C3CCC2(O)C1` (stereo unspecified) gave a TGI of 31.8 µM.
With `Cc1cc(=O)[nH]c(NN2C(Cl)C(=O)C2c2cccc(O)c2)n1` (stereo unspecified) the TGI was over 100 µM.
Work on `Cc1ccc(S(=O)(=O)Oc2cc(-c3ccccc3)nc3ccccc23)cc1` yielded a TGI of 12.3 µM.
`NNC(N)Nc1ccccc1` (stereo unspecified) was tested, and the TGI was over 100 µM.
With `CC1CC=CC(O)C1` (stereo unspecified) the TGI was over 100 µM.
Work on `c1ccc(N=C2SC(=NC3CCCCC3)N(C3CCCCC3)C2=Nc2ccccc2)cc1` yielded a TGI of over 100 µM.
`O=NN(CCCl)C(=O)NC1CCSc2ccccc21` (stereo unspecified) was tested, and the TGI was over 100 µM.
